# In US10597388B2, “Pyridazinone herbicides” (FMC CORPORATION, priority 2014, dated 2020):
# Assays:
# Test in all cases: Test C greenhouse herbicide test, pre- and postemergence
# Assay type in all cases: in vivo
# [1] = system: barnyardgrass (Echinochloa crus-galli)
# Procedure, shortened: (§1)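 Pre- and postemergence greenhouse screen; values are visual control ratings, 0 meaning no effect and 100 complete kill, assigned relative to untreated plants after 13 to 15 d.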
# [2] = system: blackgrass (Alopecurus myosuroides)
# Procedure, shortened: as §1
# [3] = system: crabgrass, large (large crabgrass, Digitaria sanguinalis)
# Procedure, shortened: as §1
# [4] = system: foxtail, giant (giant foxtail, Setaria faberii)
# Procedure, shortened: as §1
# [5] = system: galium (catchweed bedstraw, Galium aparine)
# Procedure, shortened: as §1
# [6] = system: johnsongrass (Sorghum halepense)
# Procedure, shortened: as §1
# [7] = system: lambsquarters (Chenopodium album)
# Procedure, shortened: as §1
# [8] = system: morningglory (Ipomoea coccinea)
# Procedure, shortened: as §1
# [9] = system: nutsedge, yellow (yellow nutsedge, Cyperus esculentus)
# Procedure, shortened: as §1
# [10] = system: oilseed rape (Brassica napus)
# Procedure, shortened: as §1
# [11] = system: pigweed (Amaranthus retroflexus)
# Procedure, shortened: as §1
# [12] = system: ragweed (common ragweed, Ambrosia elatior)
# Procedure, shortened: as §1
# [13] = system: soybean (Glycine max)
# Procedure, shortened: as §1
# [14] = system: velvetleaf (Abutilon theophrasti)
# Procedure, shortened: as §1
# [15] = system: waterhemp (common waterhemp, Amaranthus rudis)
# Procedure, shortened: as §1
# [16] = system: wheat (winter wheat, Triticum aestivum)
# Procedure, shortened: as §1
# [17] = Postemergence, 31 g ai/ha, 0 to 100 scale (0 no effect, 100 complete control)
# [18] = Postemergence, 125 g ai/ha, scale 0 to 100, 0 is no effect, 100 is complete control
# [19] = Postemergence, 250 g ai/ha, scale 0 to 100, 0 no effect, 100 complete control, 13 to 15 d
# [20] = Preemergence, 31 g ai/ha, scale 0 to 100, 0 is no effect, 100 is complete control
# [21] = Preemergence, 62 g ai/ha, scale 0 to 100, 0 is no effect, 100 is complete control
# [22] = Preemergence, 125 g ai/ha, scale 0 to 100, 0 is no effect, 100 is complete control
# [23] = Preemergence, 250 g ai/ha, scale 0 to 100 (0 no effect, 100 complete control)
# [24] = postemergence, 62 g ai/ha, scale 0 to 100, 0 no effect, 100 complete control
smiles,measurement,setting,value
CCOC(=O)Oc1c(C)nn(C)c(=O)c1-c1c(C)ccc2ccccc12 [Compound 73],Barnyardgrass plant response rating,[1]; [17],25
same,"Plant response rating, Barnyardgrass",[1]; [18],55
same,"Plant response rating, Barnyardgrass",[1]; [19],60
same,"Plant response rating, Barnyardgrass",[1]; [20],10
same,"Plant response rating, Barnyardgrass",[1]; [21],25
same,"Plant response rating, Barnyardgrass",[1]; [22],70
same,Barnyardgrass plant response rating,[1]; [23],85
same,Barnyardgrass plant response rating,[1]; [24],40
same,Blackgrass plant response rating,[2]; [17],40
same,"Plant response rating, Blackgrass",[2]; [18],90
same,"Plant response rating, Blackgrass",[2]; [19],90
same,"Plant response rating, Blackgrass",[2]; [20],50
same,"Plant response rating, Blackgrass",[2]; [21],80
same,"Plant response rating, Blackgrass",[2]; [22],85
same,Blackgrass plant response rating,[2]; [23],90
same,Blackgrass plant response rating,[2]; [24],85
same,"Crabgrass, Large plant response rating",[3]; [17],30
same,"Plant response rating, Crabgrass, Large",[3]; [18],60
same,"Plant response rating, Crabgrass, Large",[3]; [19],75
same,"Plant response rating, Crabgrass, Large",[3]; [20],0
same,"Plant response rating, Crabgrass, Large",[3]; [21],30
same,"Plant response rating, Crabgrass, Large",[3]; [22],75
same,"Crabgrass, Large plant response rating",[3]; [23],75
same,"Crabgrass, Large plant response rating",[3]; [24],35
same,"Foxtail, Giant plant response rating",[4]; [17],40
same,"Plant response rating, Foxtail, Giant",[4]; [18],75
same,"Plant response rating, Foxtail, Giant",[4]; [19],85
same,"Plant response rating, Foxtail, Giant",[4]; [20],55
same,"Plant response rating, Foxtail, Giant",[4]; [21],70
same,"Plant response rating, Foxtail, Giant",[4]; [22],85
same,"Foxtail, Giant plant response rating",[4]; [23],95
same,"Foxtail, Giant plant response rating",[4]; [24],65
same,Galium plant response rating,[5]; [17],90
same,"Plant response rating, Galium",[5]; [18],95
same,"Plant response rating, Galium",[5]; [19],95
same,"Plant response rating, Galium",[5]; [20],90
same,"Plant response rating, Galium",[5]; [21],98
same,"Plant response rating, Galium",[5]; [22],95
same,Galium plant response rating,[5]; [23],98
same,Galium plant response rating,[5]; [24],90
same,Johnsongrass plant response rating,[6]; [17],5
same,"Plant response rating, Johnsongrass",[6]; [18],40
same,"Plant response rating, Johnsongrass",[6]; [19],50
same,"Plant response rating, Johnsongrass",[6]; [20],0
same,"Plant response rating, Johnsongrass",[6]; [21],10
same,"Plant response rating, Johnsongrass",[6]; [22],35
same,Johnsongrass plant response rating,[6]; [23],55
same,Johnsongrass plant response rating,[6]; [24],5
same,Lambsquarters plant response rating,[7]; [17],90
same,"Plant response rating, Lambsquarters",[7]; [18],95
same,"Plant response rating, Lambsquarters",[7]; [19],98
same,"Plant response rating, Lambsquarters",[7]; [20],75
same,"Plant response rating, Lambsquarters",[7]; [21],70
same,"Plant response rating, Lambsquarters",[7]; [22],80
same,Lambsquarters plant response rating,[7]; [23],90
same,Lambsquarters plant response rating,[7]; [24],95
same,Morningglory plant response rating,[8]; [17],75
same,"Plant response rating, Morningglory",[8]; [18],95
same,"Plant response rating, Morningglory",[8]; [19],95
same,"Plant response rating, Morningglory",[8]; [20],85
same,"Plant response rating, Morningglory",[8]; [21],90
same,"Plant response rating, Morningglory",[8]; [22],90
same,Morningglory plant response rating,[8]; [23],95
same,Morningglory plant response rating,[8]; [24],90
same,"Nutsedge, Yellow plant response rating",[9]; [17],80
same,"Plant response rating, Nutsedge, Yellow",[9]; [18],80
same,"Plant response rating, Nutsedge, Yellow",[9]; [19],90
same,"Plant response rating, Nutsedge, Yellow",[9]; [20],0
same,"Plant response rating, Nutsedge, Yellow",[9]; [21],35
same,"Plant response rating, Nutsedge, Yellow",[9]; [22],50
same,"Nutsedge, Yellow plant response rating",[9]; [23],95
same,"Nutsedge, Yellow plant response rating",[9]; [24],80
same,Oilseed Rape plant response rating,[10]; [17],10
same,"Plant response rating, Oilseed Rape",[10]; [18],70
same,"Plant response rating, Oilseed Rape",[10]; [19],85
same,"Plant response rating, Oilseed Rape",[10]; [20],90
same,"Plant response rating, Oilseed Rape",[10]; [21],85
same,"Plant response rating, Oilseed Rape",[10]; [22],90
same,Oilseed Rape plant response rating,[10]; [23],85
same,Oilseed Rape plant response rating,[10]; [24],70
same,Pigweed plant response rating,[11]; [17],80
same,"Plant response rating, Pigweed",[11]; [18],95
same,"Plant response rating, Pigweed",[11]; [19],98
same,"Plant response rating, Pigweed",[11]; [20],95
same,"Plant response rating, Pigweed",[11]; [21],100
same,"Plant response rating, Pigweed",[11]; [22],100
same,Pigweed plant response rating,[11]; [23],98
same,Pigweed plant response rating,[11]; [24],85
same,Ragweed plant response rating,[12]; [17],85
same,"Plant response rating, Ragweed",[12]; [18],90
same,"Plant response rating, Ragweed",[12]; [19],90
same,"Plant response rating, Ragweed",[12]; [20],85
same,"Plant response rating, Ragweed",[12]; [21],95
same,"Plant response rating, Ragweed",[12]; [22],95
same,Ragweed plant response rating,[12]; [23],98
same,Ragweed plant response rating,[12]; [24],90
same,Soybean plant response rating,[13]; [17],0
same,"Plant response rating, Soybean",[13]; [18],25
same,"Plant response rating, Soybean",[13]; [19],45
same,"Plant response rating, Soybean",[13]; [20],0
same,"Plant response rating, Soybean",[13]; [21],0
same,"Plant response rating, Soybean",[13]; [22],0
same,Soybean plant response rating,[13]; [23],0
same,Soybean plant response rating,[13]; [24],15
same,Velvetleaf plant response rating,[14]; [17],40
same,"Plant response rating, Velvetleaf",[14]; [18],85
same,"Plant response rating, Velvetleaf",[14]; [19],90
same,"Plant response rating, Velvetleaf",[14]; [20],25
same,"Plant response rating, Velvetleaf",[14]; [21],80
same,"Plant response rating, Velvetleaf",[14]; [22],85
same,Velvetleaf plant response rating,[14]; [23],85
same,Velvetleaf plant response rating,[14]; [24],85
same,Waterhemp plant response rating,[15]; [17],75
same,"Plant response rating, Waterhemp",[15]; [18],85
same,"Plant response rating, Waterhemp",[15]; [19],100
same,"Plant response rating, Waterhemp",[15]; [20],85
same,"Plant response rating, Waterhemp",[15]; [21],90
same,"Plant response rating, Waterhemp",[15]; [22],90
same,Waterhemp plant response rating,[15]; [23],95
same,Waterhemp plant response rating,[15]; [24],75
same,Wheat plant response rating,[16]; [17],10
same,"Plant response rating, Wheat",[16]; [18],35
same,"Plant response rating, Wheat",[16]; [19],40
same,"Plant response rating, Wheat",[16]; [20],0
same,"Plant response rating, Wheat",[16]; [21],20
same,"Plant response rating, Wheat",[16]; [22],35
same,Wheat plant response rating,[16]; [23],60
same,Wheat plant response rating,[16]; [24],30
